Values of other authors in US6906047B2, “Aqueous ifosfamide composition” (Gensia Sicor Pharmaceuticals, Inc., priority 2001, dated 2005).

**Q.** For `O=P1(NCCCl)OCCCN1CCCl` (stereo not shown) [ifosfamide, 3-(2-chloroethyl)-2-[(2-chloroethylamino)]-tetrahydro-2H-1,3,2-oxazaphosphorin-2-oxide], which “solubility of ifosfamide in water” value is on record?
**A.** about 10 % by weight
